Test [1] deals with Escherichia coli DH5[alpha]. As to the kind of experiment: Inhibition of Escherichia coli DH5alpha NDM-1 assessed as MIC of meropenem at 8 mg/L by CLSI based microdilution method. In general terms: Dilution methods test growth across graded concentrations, often in twofold steps.
In test [2] the test system is Escherichia coli DH5[alpha]. The settings on record: dose 32.0 mg/L.
Another test relates to Escherichia coli. The experiment in a line: microbe, parasite or virus in culture. The note with it: DH5[alpha].
A short description of test [3]: Inhibition of recombinant N-terminal His/MBP-tagged NDM-1 (unknown origin) expressed in Escherichia coli BL21 (DE3) measured immediately by spectrophotometry.

From ChEMBL document CHEMBL4673350 (Bioorg Med Chem, 2021) come the findings set out here.

In brackets after ≈: the same amount, converted by molar mass.

On to `O=C(O)CN(CCN(CC(=O)O)CC(=O)O)CC(=O)O` [EDETIC ACID], for which the MIC (in test [1]; in test [2]; against Escherichia coli) was less than 0.25 µg/mL throughout.

Usually IC50 stands for the concentration that gives 50% inhibition. With `C[C@H](CS)C(=O)N1CCC[C@@H]1C(=O)O` [D-CAPTOPRIL], the IC50 in test [3] came to 21.8 µM. Further, the MIC in test [2] is 4 µg/mL (≈ 18.4 µM).

For `C[C@H](CS)C(=O)N1CCC(CC(N)=O)CC1`, the IC50 in test [3] worked out at 27.9 µM.

Take `C[C@H](CS)C(=O)N1CCCC[C@@H]1C(=O)O`: the MIC came to 4 µg/mL in test [1] and 2 µg/mL (≈ 8.65 µM) in test [2]. Further, the IC50 in test [3] amounted to 6.9 µM.

As to `C[C@H](CS)C(=O)N1CCC(C(N)=O)CC1`, the IC50 in test [3] came out at 11.1 µM.

For `C[C@H](CS)C(=O)N1CCC[C@H](C(=O)O)C1`, the IC50 in test [3] stood at 28.4 µM.

With `C[C@H](CS)C(=O)N1CCCCC[C@@H]1C(=O)O`, the IC50 in test [3] was found to be 20.4 µM.

In the case of `C[C@H](CS)C(=O)N1CCC(C(=O)O)CC1`, the values for the MIC in test [1] and in test [2] were 4 µg/mL and 2 µg/mL (≈ 8.65 µM), respectively. Besides, the IC50 in test [3] amounted to 4.9 µM.

In the case of `O=C(O)[C@H]1CCCN1C(=O)C(CS)CS`, in test [3], the IC50 was found to be 75 µM.

Turning to `C[C@H](CS)C(=O)N1CCc2ccccc2[C@@H]1C(=O)O`, the MIC in test [1] turned out to be 8 µg/mL; in test [2], 4 µg/mL (≈ 14.3 µM). Further, the IC50 in test [3] stood at 4.6 µM.

As to `C[C@H](CS)C(=O)N1CCC(CC(=O)O)CC1`, the IC50 in test [3] was found to be 19.8 µM.

Take `C[C@H](CS)C(=O)N1Cc2ccccc2C[C@@H]1C(=O)O`: the IC50 in test [3] was more than 300 µM.
